Reference: ChEMBL document CHEMBL4613240, “Pagoamide A, a Cyclic Depsipeptide Isolated from a Cultured Marine Chlorophyte, Derbesia sp., Using MS/MS-Based Molecular Networking” (J Nat Prod, 2020)
The source made the active and inactive calls. The rule behind the calls is not given here.

Experiments:
Cerebral cortex neuron = assay: Modulation of calcium oscillation in Swiss-Webster gravid dams mouse cerebrocortical neurons measured for 2 mins on day 12 by fluo-3 AM dye based fluorescence assay; format: functional, cell-based
NCI-H460 = assay: Cytotoxicity against human NCI-H460 cells at 30 uM incubated for 48 hrs by MTT assay; format: functional, cell-based

Which Activity (Cerebral cortex neuron) does the source give for `CC(C)[C@@H]1NC(=O)[C@@H](Cc2ccccc2)NC(=O)[C@@H](C)NC(=O)[C@H](CO)NC(=O)[C@@H](NC(=O)[C@@H](CO)NC(=O)c2csc(CNC(=O)c3csc([C@H](C(C)C)N(C)C)n3)n2)[C@@H](C)OC(=O)[C@H](Cc2ccccc2)NC1=O` here?
The Activity was “inactive”.

What about the Activity (NCI-H460) of the same molecule?
The Activity was “inactive”.
